Paper PMC5078989, “Targeted inhibition of the COP9 signalosome for treatment of cancer” (Nature Communications, 2016)
pEC50: −log10 of the molar value.

Tested on: panel of cancer cell lines
Test: Cell viability (CellTiter-Glo) dose-response across cancer cell line panel;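 further: after 72 h compound incubation with CellTiter-Glo ATP readout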
Format: cell-based, human
Conditions: Homo sapiens
Excerpt: Next, we explored the effect of CSN5 inhibition on the viability of cancer cells. To obtain a comprehensive picture, we generated dose–response curves with a CSN5 inhibitor across more than 500 cancer cell lines in a previously described standardized setting[47] (Supplementary Data 1).
A standardized CellTiter-Glo Assay (Promega #G7570) based on the quantification of ATP was applied according to the manufacturer's protocol to measure the amount of viable cells in culture. In brief, cells were seeded into 384-well plates at optimal density for each cell line. After 4 h, compounds were added at different concentrations in growth medium and incubated for another 72 h in a humidifying chamber at 37 °C and 5% CO2. […] EC50 values were calculated from the plot of percentage of inhibition versus inhibitor concentration using the nonlinear regression analysis software Origin 7.5SR6 (OriginLab Corp.).

## CC(C)C[C@H](NC(=O)[C@H](Cc1ccccc1)NC(=O)c1cnccn1)B(O)O [Bortezomib]
HCC1500, HCC1500
  pEC50: 8.29
HCC1569, HCC1569
  pEC50: 8.17
HCC1806, HCC1806
  pEC50: 7.61
HCC1937, HCC1937
  pEC50: 8.13
HCC1954, HCC1954
  pEC50: 8.50
HCC2218, HCC2218
  pEC50: 8.01
HCT-15, HCT-15
  pEC50: 7.57
HCT-116, HCT 116
  pEC50: 8.16
HEC-1-A, cell line HEC-1-A
  pEC50: 7.81
HEC-6, HEC-6
  pEC50: 7.67
HEC-50B
  pEC50: 7.60
HEC-59
  pEC50: 8.14
HEC-151
  pEC50: 7.67
HEC-251, HEC-251
  pEC50: 8.02
HEC-265
  pEC50: 7.77
HEL 92.1.7, HEL 92.1.7
  pEC50: 8.28
HEY A8, Hey-A8
  pEC50: 7.25
HGC-27, HGC-27
  pEC50: 7.79
HLC-1
  pEC50: 7.96
HLF
  pEC50: 7.86
HMC-1-8
  pEC50: 8.15
HMCB
  pEC50: 8.02
HPBALL, HPB-ALL
  pEC50: 8.50
HRT-18, HRT-18
  pEC50: 7.27
HT
  pEC50: 8.77
HT55, HT55
  pEC50: 7.51
HT115, HT115
  pEC50: 8.07
HT-29, HT-29
  pEC50: 7.74
HT-144, HT-144
  pEC50: 8.05
HT-1080, HT-1080
  pEC50: 7.70
HT-1376, HT-1376
  pEC50: 7.74
HTK-
  pEC50: 7.77
Hs 294T
  pEC50: 7.94
Hs 571.T
  pEC50: 7.99
Hs 611.T
  pEC50: 8.21
Hs 695T
  pEC50: 8.43
Hs 729
  pEC50: 8.10
Hs766T, Hs 766T
  pEC50: 7.70
Hs 936.T
  pEC50: 8.08
Hs 939.T
  pEC50: 8.35
Hs 940.T
  pEC50: 8.40
Hs 944.T
  pEC50: 7.89
Hs-578T, Hs 578T
  pEC50: 7.99
HuH-1, cell line huH-1
  pEC50: 7.35
HuP-T3, HUP-T3
  pEC50: 8.13
IGR-1, IGR-1
  pEC50: 8.06
IGR-37, IGR-37
  pEC50: 8.08
IGR-39, IGR-39
  pEC50: 8.12
IGROV-1, IGROV1
  pEC50: 7.57
IMR-32, IMR-32
  pEC50: 8.23
IPC-298, cell line IPC-298
  pEC50: 8.03
Ishikawa, Ishikawa (Heraklio) 02 ER-
  pEC50: 7.79
J82, J82
  pEC50: 7.92
JHH7, cell line JHH-7
  pEC50: 7.99
JHH-2, cell line JHH-2
  pEC50: 7.74
JHOM-1
  pEC50: 8.31
JHUEM-2
  pEC50: 8.25
JIMT-1, JIMT-1
  pEC50: 7.86
JJN-3, JJN-3
  pEC50: 8.58
JVM-2, JVM-2
  pEC50: 8.33
JVM-3, JVM-3
  pEC50: 8.06
JeKo-1, JeKo-1
  pEC50: 8.14
Jurkat
  pEC50: 8.04
K029AX
  pEC50: 8.32
K562, K-562
  pEC50: 7.79
KARPAS-299, KARPAS-299
  pEC50: 8.23
KARPAS-422, KARPAS-422
  pEC50: 8.21
KASUMI-2
  pEC50: 8.42
KATO III, cell line KATO III
  pEC50: 8.10
KCL-22, KCL-22
  pEC50: 8.38
KHM-1B
  pEC50: 8.39
KLE
  pEC50: 7.89
KM12, KM12
  pEC50: 7.62
KMM-1, KMM-1
  pEC50: 8.35
KMRC-1, KMRC-1
  pEC50: 8.17
KMRC-20
  pEC50: 8.00
KMS-11, KMS-11
  pEC50: 8.50
KMS-12-BM
  pEC50: 8.27
KMS-26, KMS-26
  pEC50: 7.94
KMS-28BM
  pEC50: 8.41
KMS-34, KMS-34
  pEC50: 7.91
KNS-62, KNS-62
  pEC50: 7.72
KO52
  pEC50: 8.62
KP-1N
  pEC50: 8.13
KP-1NL
  pEC50: 8.03
KP-N-SI9s
  pEC50: 8.07
KP-N-YN
  pEC50: 7.69
KPL-1, KPL-1
  pEC50: 7.69
KU812, KU812
  pEC50: 8.40
KYM-1
  pEC50: 8.31
KYO1, KYO-1
  pEC50: 8.18
KYSE-30, KYSE-30
  pEC50: 8.11
KYSE-70, cell line KYSE-70
  pEC50: 7.74
KYSE-150, cell line KYSE-150
  pEC50: 8.18
KYSE-270, cell line KYSE-270
  pEC50: 7.99
KYSE-410, cell line KYSE-410
  pEC50: 7.67
KYSE-450, KYSE-450
  pEC50: 7.80
KYSE-510, cell line KYSE-510
  pEC50: 7.92
KYSE-520, cell line KYSE-520
  pEC50: 7.87
Karpas-620, KARPAS-620
  pEC50: 8.21
Kelly
  pEC50: 8.45
Ki-JK
  pEC50: 8.36
L3.3
  pEC50: 7.53
L-363, L-363
  pEC50: 8.26
LAMA-84, LAMA-84
  pEC50: 8.27
LCLC-97TM1, LCLC-97TM1
  pEC50: 8.08
LCLC-103H
  pEC50: 8.00
LK-2, LK-2
  pEC50: 7.93
LMSU
  pEC50: 7.99
LN-18, LN-18
  pEC50: 7.82
LN-229, LN-229
  pEC50: 8.06
LOX IMVI
  pEC50: 7.58
LP-1, LP-1
  pEC50: 8.22
LS180, LS 180
  pEC50: 7.79
LS-411N, LS411N
  pEC50: 7.76
LXF-289, LXF-289
  pEC50: 7.84
Li-7, Li-7
  pEC50: 7.81
LoVo
  pEC50: 7.87
Loucy
  pEC50: 8.60
Lu-65, LU65
  pEC50: 8.12
Lu-99, LU99
  pEC50: 7.81
MB 157
  pEC50: 8.19
MC116, cell line MC116
  pEC50: 8.01
MCAS
  pEC50: 8.09
MCF7, MCF7
  pEC50: 7.42
MDA-MB-175-VII
  pEC50: 7.99
MDA-MB-231, MDA-MB-231
  pEC50: 7.96
MDA-MB-415, MDA-MB-415
  pEC50: 7.79
MDA-MB-436, MDA-MB-436
  pEC50: 7.90
MDA-MB-453, MDA-MB-453
  pEC50: 8.17
MDA-MB-468, MDA-MB-468
  pEC50: 8.22
MDST8, MDST8
  pEC50: 8.09
MEC1, MEC-1
  pEC50: 8.30
MEG-01, MEG-01
  pEC50: 8.06
MEL-JUSO
  pEC50: 7.97
MFE-296, cell line MFE-296
  pEC50: 7.70
MG-63, MG-63
  pEC50: 8.23
MHH-NB-11
  pEC50: 7.98
MIA PaCa-2, cell line MIA PaCa-2
  pEC50: 7.82
MINO
  pEC50: 8.17
MKN-1, cell line MKN1
  pEC50: 8.17
MKN-7, cell line MKN7
  pEC50: 8.15
MKN-45, cell line MKN-45
  pEC50: 8.10
MKN-74, cell line MKN74
  pEC50: 8.06
MM1.S, cell line MM1-S
  pEC50: 8.70
MOLM16, MOLM-16
  pEC50: 8.71
MOLM-13, MOLM-13
  pEC50: 8.28
MOLP-8, MOLP-8
  pEC50: 8.14
MOLT-16, MOLT-16
  pEC50: 8.76
MONO-MAC-6, MONO-MAC-6
  pEC50: 7.96
MOR/CPR
  pEC50: 7.40
MSTO-211H, cell line MSTO-211H
  pEC50: 7.66
MV4-11, cell line MV-4-11
  pEC50: 8.29
Malme-3M
  pEC50: 8.49
Maver1, cell line MAVER-1
  pEC50: 8.17
MeWo, cell line MeWo
  pEC50: 8.09
Mel202, cell line Mel202
  pEC50: 8.00
Mono-Mac-1, MONO-MAC-1
  pEC50: 8.10
